Key:
CDK1/CycB = molecular target: T1, CDK1/CycB (Homo sapiens, UniProt P06493); assay: CDK1/CycB kinase assay (Assay 1); assay type: biochemical; details: 0.5 μM ATP, histon IIIS substrate; read-out: CDK1/CycB (Assay 1) Concentration for 50% inhibition of enzyme activity, IC50
T1 construct: purchased ProQinase GmbH, Freiburg; host or cells: baculovirus-infected insect cells (Sf9)
Method: 10.1 Assay 1: CDK1/CycB Kinase Assay
Recombinant CDK1 and CycB-GST fusion proteins, purified from baculovirus-infected insect cells (Sf9), were purchased from ProQinase GmbH, Freiburg. The histon IIIS used as kinase substrate is commercially available from the company Sigma.
CDK1/CycB (200 ng/measuring point) was incubated for 10 min at 22° C. in the presence of various concentrations of test substances (0 μM, and within the range 0.01-100 μM) in assay buffer [50 mM Tris/HCl pH8.0, 10 mM MgCl2, 0.1 mM Na ortho-vanadate, 1.0 mM dithiothreitol, 0.5 μM adenosine triphosphate (ATP), 10 μg/measuring point histon IIIS, 0.2 μCi/measuring point ^33P-gamma ATP, 0.05% NP40, 1.25% dimethylsulfoxide]. The reaction was stopped by adding EDTA solution (250 mM, pH8.0, 15 μl/measuring point).
From each reaction mixture, 15 μl was applied to P30 filter strips (from Wallac), and unincorporated ^33P-ATP was removed by washing the filter strips three times, for 10 min each time, in 0.5% phosphoric acid. After drying the filter strips for 1 hour at 70° C., the filter strips were covered with scintillator strips (MeltiLex™ A, from Wallac) and stoved for 1 hour at 90° C. The amount of incorporated ^33P (substrate phosphorylation) was determined by scintillation measurement in a gamma-radiation measuring instrument (Wallac). The measured data were standardized to 0% inhibition (enzyme reaction without inhibitor) and 100% inhibition (all assay components except enzyme). The IC50 values were determined by means of a 4-parameter fit using the company's own software.

[1] = test system: HeLa-MaTu cervical carcinoma cells; assay: Proliferation assay (Assay 4), crystal violet staining; assay type: cell-based; details: Homo sapiens, 96 h, 4 days incubation; read-out: HeLa-MaTu (Assay 4) Concentration for 50% inhibition of cellular proliferation, IC50
Method: 10.4 Assay 4: Proliferation Assay
Cultivated human HeLa-MaTu cervical carcinoma cells (obtained from EPO-GmbH, Berlin) were plated at a density of 3000 cells/measuring point in a 96-well multititer is plate in 200 μl of growth medium (DMEM/HAMS F12, 2 mM L-glutamine, 10% fetal calf serum). After 24 hours the cells of one plate (zero-point plate) were stained with crystal violet (see below), whereas the medium of the other plates was replaced with fresh culture medium (200 μl), to which the test substances had been added at various concentrations (0 μM, and in the range 0.01-30 μM; the final concentration of the solvent dimethylsulfoxide was 0.5%). The cells were incubated for 4 days in the presence of the test substances. Cellular proliferation was determined by staining the cells with crystal violet: the cells were fixed by adding 20 μl/measuring point of an 11% glutaraldehyde solution for 15 min at room temperature. After washing the fixed cells with water three times, the plates were dried at room temperature. The cells were stained by adding 100 μl/measuring point of a 0.1% crystal violet solution (pH adjusted to pH3 by adding acetic acid). After washing the stained cells with water three times, the plates were dried at room temperature. The dye was dissolved by adding 100 μl/measuring point of a 10% acetic acid solution. The extinction was determined photometrically at a wavelength of 595 nm. The percentage change in cell growth was calculated by standardization of the measured values to the extinction values of the zero-point plate (=0%) and the extinction of the untreated (0 μM) cells (=100%). The measured data were standardized to 0% inhibition (cell proliferation without inhibitor) and 100% inhibition (zero-point plate). The IC50 values were determined by means of a 4-parameter fit using the company's own software.

T1 sequence (P06493 whole entry): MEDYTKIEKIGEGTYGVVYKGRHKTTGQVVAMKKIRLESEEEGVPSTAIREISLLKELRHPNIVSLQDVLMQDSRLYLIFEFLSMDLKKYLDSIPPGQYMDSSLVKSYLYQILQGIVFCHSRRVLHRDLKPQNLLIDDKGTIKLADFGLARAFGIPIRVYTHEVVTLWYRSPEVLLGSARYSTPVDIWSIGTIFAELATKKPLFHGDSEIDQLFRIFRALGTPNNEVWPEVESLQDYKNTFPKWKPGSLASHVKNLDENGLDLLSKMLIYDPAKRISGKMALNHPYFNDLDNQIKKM
T1 sequence (P14635 whole entry partner): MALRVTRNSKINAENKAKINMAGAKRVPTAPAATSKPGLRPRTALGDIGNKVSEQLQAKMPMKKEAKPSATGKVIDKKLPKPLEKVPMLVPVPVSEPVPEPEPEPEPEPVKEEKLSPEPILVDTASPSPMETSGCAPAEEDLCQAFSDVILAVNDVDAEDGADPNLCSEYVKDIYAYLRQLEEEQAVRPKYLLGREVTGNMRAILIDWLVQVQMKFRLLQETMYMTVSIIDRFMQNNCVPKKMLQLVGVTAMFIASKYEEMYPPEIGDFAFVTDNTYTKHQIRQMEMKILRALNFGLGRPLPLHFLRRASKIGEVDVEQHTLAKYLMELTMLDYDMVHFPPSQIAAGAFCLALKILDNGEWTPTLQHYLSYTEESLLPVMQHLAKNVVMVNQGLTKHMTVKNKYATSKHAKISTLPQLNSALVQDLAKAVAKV

With C[C@@H](O)[C@@H](C)Oc1nc(Nc2ccc(S(=N)(=O)C3CC3)cc2)ncc1Br (single isomer, unassigned) [Example V14] the IC50 (CDK1/CycB) was 4 nM and the IC50 [1] was 10 nM.

With CCS(=N)(=O)c1ccc(Nc2ncc(Br)c(N[C@H](C)[C@@H](C)O)n2)cc1 (stereo partly shown) [Example V12] the IC50 (CDK1/CycB) was 3 nM and the IC50 [1] was 13 nM.
